Source: PubChem BioAssay (NCI)
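Exposure lasted 48 hours, with cells grown in 96-well plates and compounds tested at five concentrations. The concentration for full growth arrest is given as TGI.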

Experiments:
Test in all cases: NCI tumour cell line growth inhibition, 48 h
[1] = tested on: A498 renal
[2] = tested on: A549 NSCLC
[3] = tested on: CAKI-1 renal
[4] = tested on: CCRF-CEM leukemia
[5] = tested on: COLO 205 colon
[6] = tested on: DLD-1 colon
[7] = tested on: DMS 114 small cell lung
[8] = tested on: DMS 273 small cell lung
[9] = tested on: EKVX NSCLC
[10] = tested on: HCC-2998 colon
[11] = tested on: HCT-116 colon
[12] = tested on: HCT-15 colon
[13] = tested on: HL-60(TB) leukemia
[14] = tested on: HOP-18 NSCLC
[15] = tested on: HOP-92 NSCLC
[16] = tested on: HT29 colon
[17] = tested on: IGROV1 ovarian
[18] = tested on: K-562 leukemia
[19] = tested on: KM12 colon
[20] = tested on: KM20L2 colon
[21] = tested on: LOX IMVI melanoma
[22] = tested on: M19-MEL melanoma
[23] = tested on: MALME-3M melanoma
[24] = tested on: MCF7 breast
[25] = tested on: MOLT-4 leukemia
[26] = tested on: NCI-H226 lung
[27] = tested on: NCI-H23 lung
[28] = tested on: NCI-H460 lung
[29] = tested on: NCI-H522 lung
[30] = tested on: NCI/ADR-RES ovarian
[31] = tested on: OVCAR-3 ovarian
[32] = tested on: OVCAR-4 ovarian
[33] = tested on: OVCAR-5 ovarian
[34] = tested on: OVCAR-8 ovarian
[35] = tested on: P388 leukemia
[36] = tested on: P388/ADR leukemia
[37] = tested on: RPMI-8226 leukemia
[38] = tested on: RXF 393 renal
[39] = tested on: SF-268 CNS
[40] = tested on: SF-295 CNS
[41] = tested on: SF-539 CNS
[42] = tested on: SK-MEL-2 melanoma
[43] = tested on: SK-MEL-28 melanoma
[44] = tested on: SK-MEL-5 melanoma
[45] = tested on: SK-OV-3 ovarian
[46] = tested on: SN12C renal
[47] = tested on: SN12K1 renal
[48] = tested on: SNB-19 CNS
[49] = tested on: SNB-75 CNS
[50] = tested on: SNB-78 CNS
[51] = tested on: SW-620 colon
[52] = tested on: U251 CNS
[53] = tested on: UACC-257 melanoma
[54] = tested on: UACC-62 melanoma
[55] = tested on: UO-31 renal
[56] = tested on: XF 498 CNS

O=P1(c2ccccc2)Nc2ccccc2SSc2ccccc2N1
TGI [1]: 41.2 µM | TGI [2]: 46.1 µM | TGI [3]: 32.4 µM | TGI [4]: 62.8 µM | TGI [5]: 42.4 µM | TGI [6]: 31.8 µM | TGI [7]: 43 µM | TGI [8]: 33.7 µM | TGI [9]: 33.4 µM | TGI [10]: 37.6 µM | TGI [11]: 31.4 µM | TGI [12]: 35.8 µM | TGI [13]: 39.6 µM | TGI [14]: 36.6 µM | TGI [15]: 30.7 µM | TGI [16]: 37.1 µM | TGI [17]: 38.2 µM | TGI [18]: 51.4 µM | TGI [19]: 30.4 µM | TGI [20]: 33.7 µM | TGI [21]: 35.1 µM | TGI [22]: 34.4 µM | TGI [23]: 36.9 µM | TGI [24]: 37.5 µM | TGI [25]: 49.9 µM | TGI [26]: 33.4 µM | TGI [27]: 32.7 µM | TGI [28]: 33.8 µM | TGI [29]: 29 µM | TGI [30]: 42.3 µM | TGI [31]: 28.3 µM | TGI [32]: 33.6 µM | TGI [33]: 36.1 µM | TGI [34]: 37.2 µM | TGI [35]: > 38.6 µM | TGI [36]: 31.2 µM | TGI [37]: 45.3 µM | TGI [38]: 34.5 µM | TGI [39]: 34 µM | TGI [40]: 30.3 µM | TGI [41]: 34.3 µM | TGI [42]: 32.2 µM | TGI [43]: 34.3 µM | TGI [44]: 31.6 µM | TGI [45]: 44.4 µM | TGI [46]: 32.8 µM | TGI [47]: 30.7 µM | TGI [48]: 30.3 µM | TGI [49]: 39.4 µM | TGI [50]: 56.3 µM | TGI [51]: 33.7 µM | TGI [52]: 30.4 µM | TGI [53]: 30.3 µM | TGI [54]: 29.8 µM | TGI [55]: 27.2 µM | TGI [56]: 32.7 µM
